Data from patent US9499550B2 (BRISTOL-MYERS SQUIBB COMPANY, priority 2012, dated 2016).
Read-outs that look alike come from different tables or passages of the source.

Assays:
[1] = test system: HCV genotype 1b (Con1) replicon in HUH-7 cells; assay: HCV replicon luciferase reporter assay, genotype 1b; type: cell-based; settings: Hepatitis C virus, Huh-7, 72 h, HCV genotype 1b replicon luciferase, 3 days incubation, read-out: LE_1b (EC50, range)
Method in brief: (§1)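 Replicon inhibition for both genotypes was measured as Renilla luciferase signal (EnduRen, 7.5 μM final, 2 h) after 3-day, 37° C exposure of replicon-bearing HUH-7 cells in 4% FCS DMEM, 0.5% DMSO. The 1b construct carries S1179I; the 1a H77 construct carries P1496L and S2204I. Twenty-point, 3-fold dilutions were fitted four-parametrically for EC50, and CC50 was taken from multiplexed Cell Titer-Blue.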

[2] = test system: HCV genotype 1a (H77 strain) replicon in HUH-7 cells; assay: HCV replicon luciferase reporter assay, genotype 1a; type: cell-based; settings: Hepatitis C virus, Huh-7, 72 h, HCV genotype 1a replicon luciferase, 3 days incubation, read-out: LE_1a (EC50, range)
Method in brief: as §1

`CCOc1cnc(O[C@@H]2C[C@H]3C(=O)N[C@]4(C(=O)NS(=O)(=O)C5CC5)C[C@H]4/C=C\CC[C@@H](C)C[C@@H](C)[C@H](NC(=O)OC(C)(C)C(F)(F)F)C(=O)N3C2)c2cc(F)ccc12` [Compound 4062] was tested, and the EC50 ([1]; GETYPE1B) was under 5.46 nM and the EC50 ([2]; GETYPE1A) was under 5.46 nM.

`COc1ccc2c(O[C@@H]3C[C@H]4C(=O)N[C@]5(C(=O)NS(=O)(=O)C6(C)CC6)C[C@H]5/C=C\CC[C@@H](C)C[C@@H](C)[C@H](NC(=O)OC(C)(C)C)C(=O)N4C3)nc(-c3ccc(OC(C)C)cc3)cc2c1` [Compound 4063, tert-butyl (2R,6S,7R,9R,13aS,14aR,16aS,Z)-2-(3-(4-isopropoxyphenyl)-6-methoxyisoquinolin-1-yloxy)-7,9-dimethyl-14a-(1-methylcyclopropylsulfonylcarbamoyl)-5,16-dioxo-1,2,3,5,6,7,8,9,10,11,13a,14,14a,15,16,16a-hexadecahydrocyclopropa[e]pyrrolo[1,2-a][1,4]diazacyclopentadecin-6-ylcarbamate] gave an EC50 [1] of under 5.46 nM and an EC50 [2] of under 5.46 nM.

For `COc1ccc2c(O[C@@H]3C[C@H]4C(=O)N[C@]5(C(=O)NS(=O)(=O)C6(C)CC6)C[C@H]5/C=C\CC[C@@H](C)C[C@@H](C)[C@H](NC(=O)OC(C)(C)C(F)(F)F)C(=O)N4C3)nc(-c3ccc(OC(C)C)cc3)cc2c1` [Compound 4064], the EC50 ([1]; GETYPE1B) was under 5.46 nM and the EC50 ([2]; GETYPE1A) was under 5.46 nM.

Molecule `COc1cnc(O[C@@H]2C[C@H]3C(=O)N[C@]4(C(=O)NS(=O)(=O)C5(C)CC5)C[C@H]4/C=C\CC[C@@H](C)C[C@@H](C)[C@H](NC(=O)OC(C)(C)C(F)(F)F)C(=O)N3C2)c2cccc(Cl)c12` [Compound 4065] has an EC50 ([1]; GETYPE1B) of under 5.46 nM and an EC50 ([2]; GETYPE1A) of under 5.46 nM.

`CCOc1cnc(O[C@@H]2C[C@H]3C(=O)N[C@]4(C(=O)NS(=O)(=O)C5(C)CC5)C[C@H]4/C=C\CC[C@@H](C)C[C@@H](C)[C@H](NC(=O)O[C@H](C)C(F)(F)F)C(=O)N3C2)c2ccccc12` [Compound 4066, (R)-1,1,1-trifluoropropan-2-yl (2R,6S,7R,9R,13aS,14aR,16aS,Z)-2-(4-ethoxyisoquinolin-1-yloxy)-7,9-dimethyl-14a-(1-methylcyclopropylsulfonylcarbamoyl)-5,16-dioxo-1,2,3,5,6,7,8,9,10,11,13a,14,14a,15,16,16a-hexadecahydrocyclopropa[e]pyrrolo[1,2-a][1,4]diazacyclopentadecin-6-ylcarbamate] showed an EC50 [1] of under 5.46 nM and an EC50 [2] of under 5.46 nM.

`C[C@@H]1CC/C=C\[C@@H]2C[C@@]2(C(=O)NS(=O)(=O)C2CC2)NC(=O)[C@@H]2C[C@@H](Oc3ncc(OCC4CC4)c4ccc(F)cc34)CN2C(=O)[C@@H](NC(=O)OC(C)(C)C(F)(F)F)[C@H](C)C1` [Compound 4067] gave an EC50 ([1]; GETYPE1B) of under 5.46 nM and an EC50 ([2]; GETYPE1A) of 4.82 to 103 nM.

With `COc1cnc(O[C@@H]2C[C@H]3C(=O)N[C@]4(C(=O)NS(=O)(=O)C5(F)CC5)C[C@H]4/C=C\CC[C@@H](C)C[C@@H](C)[C@H](NC(=O)OC(C)(C)C(F)(F)F)C(=O)N3C2)c2cc(F)ccc12` [Compound 4068] the EC50 ([1]; GETYPE1B) was under 5.46 nM and the EC50 ([2]; GETYPE1A) was under 5.46 nM.

`COc1cc2ccnc(O[C@@H]3C[C@H]4C(=O)N[C@]5(C(=O)NS(=O)(=O)C6(F)CC6)C[C@H]5/C=C\CC[C@@H](C)C[C@@H](C)[C@H](NC(=O)OC(C)(C)C(F)(F)F)C(=O)N4C3)c2cc1F` [Compound 4069] was tested, and the EC50 ([1]; GETYPE1B) was under 5.46 nM and the EC50 ([2]; GETYPE1A) was under 5.46 nM.

`COc1cc2c(OC)cnc(O[C@@H]3C[C@H]4C(=O)N[C@]5(C(=O)NS(=O)(=O)C6(C)CC6)C[C@H]5/C=C\CC[C@@H](C)C[C@@H](C)[C@H](NC(=O)OC(C)(C)C)C(=O)N4C3)c2cc1F` [Compound 4070, tert-butyl (2R,6S,7R,9R,13aS,14aR,16aS,Z)-2-(7-fluoro-4,6-dimethoxyisoquinolin-1-yloxy)-7,9-dimethyl-14a-(1-methylcyclopropylsulfonylcarbamoyl)-5,16-dioxo-1,2,3,5,6,7,8,9,10,11,13a,14,14a,15,16,16a-hexadecahydrocyclopropa[e]pyrrolo[1,2-a][1,4]diazacyclopentadecin-6-ylcarbamate] was tested, and the EC50 [1] was under 5.46 nM and the EC50 [2] was under 5.46 nM.

`C[C@@H]1CC/C=C\[C@@H]2C[C@@]2(C(=O)NS(=O)(=O)C2CC2)NC(=O)[C@@H]2C[C@@H](Oc3nccc4ccc(F)cc34)CN2C(=O)[C@@H](NC(=O)OC(C)(C)C)[C@H](C)C1` [Compound 4071, tert-butyl (2R,6S,7R,9R,13aS,14aR,16aS,Z)-14a-(cyclopropylsulfonylcarbamoyl)-2-(7-fluoroisoquinolin-1-yloxy)-7,9-dimethyl-5,16-dioxo-1,2,3,5,6,7,8,9,10,11,13a,14,14a,15,16,16a-hexadecahydrocyclopropa[e]pyrrolo[1,2-a][1,4]diazacyclopentadecin-6-ylcarbamate] showed an EC50 [1] of under 5.46 nM and an EC50 [2] of under 5.46 nM.

`C[C@@H]1CC/C=C\[C@@H]2C[C@@]2(C(=O)NS(=O)(=O)C2CC2)NC(=O)[C@@H]2C[C@@H](Oc3nccc4ccc(F)cc34)CN2C(=O)[C@@H](NC(=O)OC2(C)CC2)[C@H](C)C1` [Compound 4073, 1-methylcyclopropyl (2R,6S,7R,9R,13aS,14aR,16aS,Z)-14a-(cyclopropylsulfonylcarbamoyl)-2-(7-fluoroisoquinolin-1-yloxy)-7,9-dimethyl-5,16-dioxo-1,2,3,5,6,7,8,9,10,11,13a,14,14a,15,16,16a-hexadecahydrocyclopropa[e]pyrrolo[1,2-a][1,4]diazacyclopentadecin-6-ylcarbamate] showed an EC50 [1] of under 5.46 nM and an EC50 [2] of under 5.46 nM.

`COc1cc2c(OC)cnc(O[C@@H]3C[C@H]4C(=O)N[C@]5(C(=O)NS(=O)(=O)C6CC6)C[C@H]5/C=C\CC[C@@H](C)C[C@@H](C)[C@H](NC(=O)OC(C)(C)C)C(=O)N4C3)c2cc1F` [Compound 4074, tert-butyl (2R,6S,7R,9R,13aS,14aR,16aS,Z)-14a-(cyclopropylsulfonylcarbamoyl)-2-(7-fluoro-4,6-dimethoxyisoquinolin-1-yloxy)-7,9-dimethyl-5,16-dioxo-1,2,3,5,6,7,8,9,10,11,13a,14,14a,15,16,16a-hexadecahydrocyclopropa[e]pyrrolo[1,2-a][1,4]diazacyclopentadecin-6-ylcarbamate] gave an EC50 [1] of under 5.46 nM and an EC50 [2] of under 5.46 nM.

For `CCOc1cnc(O[C@@H]2C[C@H]3C(=O)N[C@]4(C(=O)NS(=O)(=O)C5(C)CC5)C[C@H]4/C=C\CC[C@@H](C)C[C@@H](C)[C@H](NC(=O)OC(C)(C)C)C(=O)N3C2)c2cc(Cl)ccc12` [Compound 4075, tert-butyl (2R,6S,7R,9R,13aS,14aR,16aS,Z)-2-(7-chloro-4-ethoxyisoquinolin-1-yloxy)-7,9-dimethyl-14a-(1-methylcyclopropylsulfonylcarbamoyl)-5,16-dioxo-1,2,3,5,6,7,8,9,10,11,13a,14,14a,15,16,16a-hexadecahydrocyclopropa[e]pyrrolo[1,2-a][1,4]diazacyclopentadecin-6-ylcarbamate], the EC50 [1] was under 5.46 nM and the EC50 [2] was under 5.46 nM.

Work on `CCOc1cnc(O[C@@H]2C[C@H]3C(=O)N[C@]4(C(=O)NS(=O)(=O)C5(C)CC5)C[C@H]4/C=C\CC[C@@H](C)C[C@@H](C)[C@H](NC(=O)OC(C)(C)C(F)(F)F)C(=O)N3C2)c2cc(Cl)ccc12` [Compound 4076] yielded an EC50 ([1]; GETYPE1B) of under 5.46 nM and an EC50 ([2]; GETYPE1A) of under 5.46 nM.

`CCC1(S(=O)(=O)NC(=O)[C@@]23C[C@H]2/C=C\CC[C@@H](C)C[C@@H](C)[C@H](NC(=O)OC(C)(C)C(F)(F)F)C(=O)N2C[C@H](Oc4nccc5cc(OC)ccc45)C[C@H]2C(=O)N3)CC1` [Compound 4077] showed an EC50 ([1]; GETYPE1B) of under 5.46 nM and an EC50 ([2]; GETYPE1A) of under 5.46 nM.
